In test [1] the test system is RAW 264.7 monocyte/macrophage murine cells. The test can be described thus: MTT growth inhibition on RAW 264.7 cells. It is filed as cell-based. The settings on record: Mus musculus, RAW264.7, RAW 264.7, MTT; for IC20: 20% growth inhibition; for IC80: 80% growth inhibition. Here is the method:
(§1) A stock solution was frozen and stored at […]. Before the experiments, this solution was diluted in cell-culture medium to the adequate concentrations for each experiment. […] For nitrite assay, subcytotoxic concentrations (3/4IC50, 1/2IC50, and 1/4IC50), were used to ensure that the NO inhibitory potential was not due to a possible cytotoxic effect. The concentrations of 3/4IC50, 1/2IC50, and 1/4IC50 were used for the cell-cycle analysis. All experiments were measured and compared with control (untreated cells after 24, 48, or 72 h of treatment.)
In all experiments, monolayer cells were grown to 80–90% confluence, in sterile cell culture flasks. All cell lines used were purchased from the cell bank of the University of Granada, Spain.
The cytotoxicity assay was performed by the MTT (3-(4,5-dimethylthiazol-2-yl)-2,5-diphenyltetrazolium bromide) method.[21] […] All tested compounds were prepared in fresh growth medium. After 24 h, an additional 100 μL of medium with the corresponding concentrations of products (only medium in the control wells) was added to the corresponding wells, at various final concentrations (0–100 μg/mL). […] After 1.5 h of incubation, formazan was resuspended in 100 μL of DMSO, and each concentration was tested in triplicate.
Cytotoxicity experimental data were fitted to a sigmoidal function (y = ymax/(x/a)^−b) by nonlinear regression. […] Similar analyses were performed to obtain the IC50 of NO production. All data shown here are representative of at least two independent experiments performed in triplicate. All quantitative data were summarized as the mean ± standard deviation (SD).

For test [2], the system named is B16-F10 murine melanoma cells. The test can be described thus: MTT cancer cell proliferation assay, B16-F10. The settings on record: Mus musculus, B16-F10, 72 h, MTT; for IC50: read-out: IC50; for IC20: read-out: IC20. It is filed as cell-based. Here is the method:
(§2) The five newly synthesized diterpenoids were evaluated for their cytotoxic effects against three selected tumor cell lines, B16-F10 murine melanoma cells, HT29 human colon adenocarcinoma cells, and HepG2 human hepatocarcinoma cells at increasing concentrations (0–100 μg/mL). After 72 h of treatment, cell viability was determined by an MTT assay, where the tetrazolium dye was transformed into formazan in the mitochondria of viable cells, its absorbance measured at 570 nm and expressed as a percentage with respect to untreated control cells (S3 Figure.). The concentrations required for 20, 50, and for 80% growth inhibition (IC20, IC50, and IC80) were also determined for each compound (Table 2).
as §1
(§3) Human colorectal adenocarcinoma cell line HT29 (ECACC no. 9172201; ATCC no. HTB-38), human hepatocarcinome cell line HepG2 (ECACC no. 85011430), mouse melanoma cells B16-F10 (ATCC no. CRL-6475), and murine monocyte/macrophage-like RAW 264.7 cell line (ATCC no, TIB-71) were cultured in DMEM (Dulbecco’s modified Eagle’s medium) supplemented with 2 mM glutamine, 10% heat-inactivated FCS (fetal calf serum), 10 000 units/mL of penicillin and 10 mg/mL of streptomycin, (for all cancer cell lines), 50 μg/mL of gentamicin (only for RAW 264.7 cell line), and incubated at 37 °C, in an atmosphere of 5% CO2 and 95% humidity. The culture media were changed every 48 h, and the confluent cultures were separated with a trypsin solution (0.25% EDTA). In all experiments, monolayer cells were grown to 80–90% confluence, in sterile cell culture flasks. All cell lines used were purchased from the cell bank of the University of Granada, Spain.
(§4) The cytotoxicity assay was performed by the MTT (3-(4,5-dimethylthiazol-2-yl)-2,5-diphenyltetrazolium bromide) method.[21] To quantify the cytotoxicity of compounds, the fresh and suspended cells were seeded in 96-well plates to a volume of 100 μL at 6.0 × 10^3 cells/mL for HT29 and RAW 264.7 cell lines, at 5.0 × 10^3 cells/mL for B16-F10 cells and 15.0 × 10^3 for Hep G2. Then, cells were incubated to adhere over 24 h at 37 °C with 5% CO2. All tested compounds were prepared in fresh growth medium. After 24 h, an additional 100 μL of medium with the corresponding concentrations of products (only medium in the control wells) was added to the corresponding wells, at various final concentrations (0–100 μg/mL). Finally, after 72 h of incubation at 37 °C with 5% CO2, the medium with the compounds were removed and 100 μL of MTT solution (0.5 mg/mL) in 50% of PBS 50% of medium was added to each well. After 1.5 h of incubation, formazan was resuspended in 100 μL of DMSO, and each concentration was tested in triplicate. Relative cell viability, with respect to untreated control cells, was measured by absorbance at 570 nm on an ELISA plate reader (Tecan Sunrise MR20-301, TECAN, Austria).
(§5) Cytotoxicity experimental data were fitted to a sigmoidal function (y = ymax/(x/a)^−b) by nonlinear regression. […] These analyses were performed using SigmaPlot 12.5 software. Similar analyses were performed to obtain the IC50 of NO production. All data shown here are representative of at least two independent experiments performed in triplicate. All quantitative data were summarized as the mean ± standard deviation (SD).

Test [3] relates to HT29 human colon adenocarcinoma cells. The test can be described thus: MTT cancer cell proliferation assay, HT29. The settings on record: Homo sapiens, HT29, 72 h, MTT; for IC50: HT-29, 72 h, read-out: IC50; for IC80 / IC20: HT-29; for IC20: read-out: IC20. It is filed as cell-based. On the procedure: as §2, §1, §3, §4, §5
The next test concerns B16-F10 cells. The test can be described thus: Mitochondrial membrane potential, Rh123/PI flow cytometry. It counts as cell-based, murine. As to conditions: B16-F10, 72 h; for changes in mitochondrial membrane potential (MMP): IC50 and IC80 concentrations, Rh123/IP. An excerpt:
In addition, the loss of part of MMP can be related to the secondary activation of the intrinsic apoptotic pathway as a final event in the extrinsic apoptosis mechanism. Further molecular studies will be necessary to confirm these conclusions.
The electrochemical gradient across the mitochondrial membrane was investigated by analytical flow cytometry, using dihydrorhodamine (DHR). DHR is oxidized in contact with living cells, forming a highly fluorescent product called rhodamine (Rh 123). The emitted fluorescence can be monitored by fluorescence spectroscopy using excitation and emission wavelengths of 500 and 536 nm, respectively.[37]−[39] […] After treatment, the culture medium was renewed by adding fresh medium with DHR to a final concentration of […]. Cells were incubated for 1 h at 37 °C in an atmosphere of 5% CO2 and 95% humidity and subsequently washed and resuspended in PBS with 5 μg/mL of PI. The fluorescence intensity was measured using a FACScan flow cytometer (fluorescence-activated cell sorter). The experiments were performed three times with two replicates per assay.

“Also recorded” adds a separate entry of the source.

As a reminder, the IC50 is the concentration needed to halve the response being measured. As a reminder, the IC20 is the point of the concentration-response curve where the effect stands at 20%. The term IC80 denotes the concentration at which the effect reaches the 80% level. In test [1], `COC(=O)[C@]1(C)CCC[C@@]2(C)[C@H]1CC=C1C(C)=C(C(C)C)C(=O)C[C@@H]12` [Compound 16, (1R,4aR,10aR)-Methyl 7-isopropyl-1,4a,8-trimethyl-6-oxo-1,2,3,4,4a,4b,5,6,10,10a-decahydrophenanthrene-1-carboxylate] came in with an IC50 of 33.1 ± 3.62 µM, an IC20 of 30.1 ± 0.49 µM and an IC80 of 33.81 ± 0.08 µM. In addition, in test [2], the 50% inhibitory concentration (IC50) turned out to be 22.2 ± 1.16 µM, the IC80 stood at 35.8 ± 3.35 µM and the IC20 turned out to be 14.2 ± 0.19 µM. In test [3], the IC50 came out at 33.4 ± 2.16 µM, it took 55 ± 0.93 µM to reach the 80% level (IC80) and the IC20 worked out at 21.4 ± 3.09 µM. Besides, in the test with B16-F10 cells, the “changes in mitochondrial membrane potential (MMP)” value is recorded as “did not cause any loss of the mitochondrial membrane potential; also recorded: did not produce any changes in MMP”.
Turning to `COC(=O)[C@]1(C)CCC[C@]2(C)c3cc(O)c(C=O)c(C)c3CC[C@@H]12` [Compound 21, (1R,4aS,10aR)-Methyl 7-formyl-6-hydroxy-1,4a,8-trimethyl-1,2,3,4,4a,9,10,10a-octahydrophenanthrene-1-carboxylate], in test [1], the IC50 turned out to be 21.1 ± 0.96 µM, the IC20 amounted to 17.8 ± 1.34 µM and the IC80 is 25.3 ± 0.58 µM. In test [2], the IC50 stood at 7.72 ± 3.92 µM, the IC80 was 20.1 ± 7.72 µM and the 20% effect concentration (IC20) stood at 3.18 ± 2.3 µM. In test [3], the 50% inhibitory concentration (IC50) turned out to be 20.1 ± 0.61 µM, the IC80 is 30.6 ± 0.81 µM and the IC20 was determined as 13.5 ± 0.55 µM. In the test with B16-F10 cells, the “changes in mitochondrial membrane potential (MMP)” value was “partial loss of the MMP”. For the same compound, the “population of Rh123 negative cells versus control untreated cells” value with B16-F10 cells (IC80 concentration) is listed as “higher”.

Values taken from PMC9623576, “Semisynthesis and Evaluation of Anti-Inflammatory Activity of the Cassane-Type Diterpenoid Taepeenin F and of Some Synthetic Intermediates” (Journal of Natural Products, 2022).
